Measured values: US20030228583A1, “Biomarkers of liver response” (priority 2001, published 2003)

System: Liver Response-Associated Features (LRFs) in serum/plasma (blood)
Test: Proteome analysis (2D electrophoresis, Reference Protocol) of depleted serum/plasma of drug-treated vs control animals: relative abundance of LRFs
Description: Samples from animals treated with various drugs at various timepoints and various dose levels can be collected, prepared, and analysed as described herein. […] Using the following procedure, proteins in liver tissue and serum/plasma from 5 control animals and 5 animals having liver response induced through drug treatment were separated by isoelectric focusing followed by SDS-PAGE and analyzed. Samples were taken and analyzed at three different time points designated “early”, “full manifestation” and “late”. Parts 6.1.1 to 6.1.9 (inclusive) of the procedure set forth below are hereby designated as the “Reference Protocol”.
Approximately 200 μl venous blood was collected at the time of necropsy in serum seperation tubes and serum obtained by centrifugation for 3 minutes at 11,000 rpm using a Biofuge A centrifuge. 100 μl of the resulting serum was added to 15 μl protease inhibitor, vortexed and frozen at −80° C.
A protein assay (Pierce (Rockford, Ill.) BCA Cat #23225) was performed on each serum/plasma sample as received. Prior to protein separation, each sample was processed for selective depletion of certain proteins, in order to enhance and simplify protein separation and facilitate analysis by removing proteins that may interfere with or limit analysis of proteins of interest. See International Patent Application No. PCT/GB99/01742, filed Jun. 1, 1999, which is incorporated by reference in its entirety, with particular reference to pages 3 and 6.
This was done by circulating the following solutions sequentially through the columns: (1) Dulbecco's Phosphate Buffered Saline (Gibco BRL Cat. No. 14190-094); (2) concentrated antibody solution; (3) 200 mM sodium carbonate buffer, pH 8.35; (4) cross-linking solution (200 mM sodium carbonate buffer, pH 8.35, 20 mM dimethylpimelimidate); and (5) 500 mM ethanolamine, 500 mM NaCl. A third (un-derivatised) protein G Hi-Trap column was then attached to the lower end of the tandem column assembly.
The chromatographic procedure was automated using an Akta Fast Protein Liquid Chromatography (FPLC) System such that a series of up to seven runs could be performed sequentially. […] Fractions (typically 3 ml per tube) were collected of unbound material (“Flowthrough fractions”) that eluted through the column during column loading and washing stages and of bound proteins (“Bound/Eluted fractions”) that were eluted by step elution with Immunopure Gentle Ag/Ab Elution Buffer (Pierce Cat. No. 21013). The eluate containing unbound material was collected in fractions which were pooled, desalted/concentrated by centrifugal ultrafiltration and stored to await further analysis by 2D PAGE.
A volume of depleted serum/plasma containing approximately 300 μg of total protein was aliquoted and an equal volume of 10% (w/v) SDS (Fluka 71729), 2.3% (w/v) dithiothreitol (BDH 443852A) was added. The sample was heated at 95° C. for 5 mins, and then allowed to cool to 20° C . 125 μl of the following buffer was then added to the sample:
This mixture was vortexed, and centrifuged at 13000 rpm for 5 mins at 15° C., and the supernatant was analyzed by isoelectric focusing.
Isoelectric focusing (IEF), was performed using the Immobiline® DryStrip Kit (Pharmacia BioTech), following the procedure described in the manufacturer's instructions, see Instructions for Immobilineg DryStrip Kit, Pharmacia, #18-1038-63, Edition AB (incorporated herein by reference in its entirety). Immobilized pH Gradient (IPG) strips (18 cm, pH 3-10 non-linear strips; Pharmacia Cat. #17-1235-01) were rehydrated overnight at 20° C. in a solution of 8M urea, 2% (w/v) CHAPS, 10 mM DTT, 2% (v/v) Resolytes 3.5-10, as described in the Immobiline DryStrip Users Manual. For IEF, 50 μl of supernatant (prepared as above) was loaded onto a strip, with the cup-loading units being placed at the basic end of the strip.

## CCC1(c2ccccc2)C(=O)NC(=O)NC1=O [phenobarbital]
Early, P 0.0075
  Fold Change LRF-235: 8.26 fold
Early, P 0.0117
  Fold Change LRF-223: 1.34 fold
Early, P 0.0119
  Fold Change LRF-158: −1.33 fold
Early, P 0.0122
  Fold Change LRF-217: 2.16 fold
Early, P 0.0178
  Fold Change LRF-182: −2.81 fold
Early, P 0.0212
  Fold Change LRF-179: −1.37 fold
Early, P 0.0216
  Fold Change LRF-224: 1.30 fold
Late, P 0.0097
  Fold Change LRF-369: 2.53 fold
Late, P 0.0109
  Fold Change LRF-371: 3.02 fold
Middle, P 0.0122
  Fold Change LRF-257: −1.42 fold
Middle, P 0.0212
  Fold Change LRF-259: −1.34 fold
Middle, P 0.0216
  Fold Change LRF-294: 1.57 fold
